Measured values from paper PMC12372887, “Mechanism and cellular actions of the potent AMPK inhibitor BAY-3827” (Science Advances, 2025).

Experiments:
Test in all cases: Kinase panel (140 human kinases)
Type in all cases: biochemical
CAMK1 = CAMK1 (Homo sapiens, UniProt Q14012)
Method: (§1) BAY-3827 and BAY-974 were assayed against a 140-human kinase panel at 0.1 μM and at 1 μM (BAY-3827) concentration in a [γ-^33P] ATP–based radioactive filter binding assay ([31], [65]) setup in duplicates with reported mean remaining kinase percentage activity alongside SD (table S1). Assays were performed at either 5, 20, or 50 μM ATP to be at or below the Michaelis constant for ATP for each enzyme and conducted by the services offered by the International Centre for Kinase Profiling at MRC Protein Phosphorylation and Ubiquitylation Unit, University of Dundee (https://www.kinase-screen.mrc.ac.uk/services/premier-screen).

CDK2-Cyclin A = CDK2-Cyclin A (Homo sapiens, UniProt P24941)
Method: as §1

CK2 = CK2 (Homo sapiens, UniProt P68400)
Method: as §1

CLK2 = CLK2 (Homo sapiens, UniProt P49760)
Method: as §1

EPH-A2 = EPH-A2 (Homo sapiens, UniProt P29317)
Method: as §1

EPH-B3 = EPH-B3 (Homo sapiens, UniProt P54753)
Method: as §1

ERK1 = ERK1 (Homo sapiens, UniProt P27361)
Method: as §1

IGF-1R = IGF-1R (Homo sapiens, UniProt P08069)
Method: as §1

IRAK1 = IRAK1 (Homo sapiens, UniProt P51617)
Chain of IRAK1 (P51617 whole entry): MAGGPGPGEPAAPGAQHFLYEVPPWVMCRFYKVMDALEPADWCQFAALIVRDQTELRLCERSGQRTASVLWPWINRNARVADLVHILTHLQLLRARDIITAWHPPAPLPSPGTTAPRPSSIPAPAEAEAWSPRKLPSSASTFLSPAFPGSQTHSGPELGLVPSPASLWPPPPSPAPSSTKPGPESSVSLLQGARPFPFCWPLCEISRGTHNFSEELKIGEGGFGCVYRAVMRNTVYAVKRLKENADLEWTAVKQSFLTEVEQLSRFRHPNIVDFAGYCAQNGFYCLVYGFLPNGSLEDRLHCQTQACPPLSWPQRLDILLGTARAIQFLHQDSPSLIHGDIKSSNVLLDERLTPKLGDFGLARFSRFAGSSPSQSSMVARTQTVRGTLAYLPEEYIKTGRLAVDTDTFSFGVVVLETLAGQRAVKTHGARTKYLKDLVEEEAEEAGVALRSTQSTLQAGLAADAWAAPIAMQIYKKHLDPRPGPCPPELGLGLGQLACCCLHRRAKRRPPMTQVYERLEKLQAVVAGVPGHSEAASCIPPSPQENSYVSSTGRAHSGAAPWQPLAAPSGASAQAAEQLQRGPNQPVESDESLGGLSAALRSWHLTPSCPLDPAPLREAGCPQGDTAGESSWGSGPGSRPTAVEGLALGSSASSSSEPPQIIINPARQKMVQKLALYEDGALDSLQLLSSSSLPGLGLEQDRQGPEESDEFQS
Method: as §1

LKB1 = LKB1 (Homo sapiens, UniProt Q15831)
Method: as §1

MKK2 = MKK2 (Homo sapiens, UniProt P36507)
Method: as §1

MLK1 = MLK1 (Homo sapiens, UniProt P80192)
Method: as §1

MNK1 = MNK1 (Homo sapiens, UniProt Q9BUB5)
Method: as §1

MST4 = MST4 (Homo sapiens, UniProt Q9P289)
Method: as §1

PAK4 = PAK4 (Homo sapiens, UniProt O96013)
Method: as §1

PDGFRA = PDGFRA (Homo sapiens, UniProt P16234)
Method: as §1

PKA = PKA (Homo sapiens, UniProt P17612)
Method: as §1

PLK1 = PLK1 (Homo sapiens, UniProt P53350)
Method: as §1

PRAK = PRAK (Homo sapiens, UniProt Q8IW41)
Method: as §1

PRK2 = PRK2 (Homo sapiens, UniProt Q16513)
Method: as §1

RSK2 = RSK2 (Homo sapiens, UniProt P51812)
Chain of RSK2 (P51812 whole entry): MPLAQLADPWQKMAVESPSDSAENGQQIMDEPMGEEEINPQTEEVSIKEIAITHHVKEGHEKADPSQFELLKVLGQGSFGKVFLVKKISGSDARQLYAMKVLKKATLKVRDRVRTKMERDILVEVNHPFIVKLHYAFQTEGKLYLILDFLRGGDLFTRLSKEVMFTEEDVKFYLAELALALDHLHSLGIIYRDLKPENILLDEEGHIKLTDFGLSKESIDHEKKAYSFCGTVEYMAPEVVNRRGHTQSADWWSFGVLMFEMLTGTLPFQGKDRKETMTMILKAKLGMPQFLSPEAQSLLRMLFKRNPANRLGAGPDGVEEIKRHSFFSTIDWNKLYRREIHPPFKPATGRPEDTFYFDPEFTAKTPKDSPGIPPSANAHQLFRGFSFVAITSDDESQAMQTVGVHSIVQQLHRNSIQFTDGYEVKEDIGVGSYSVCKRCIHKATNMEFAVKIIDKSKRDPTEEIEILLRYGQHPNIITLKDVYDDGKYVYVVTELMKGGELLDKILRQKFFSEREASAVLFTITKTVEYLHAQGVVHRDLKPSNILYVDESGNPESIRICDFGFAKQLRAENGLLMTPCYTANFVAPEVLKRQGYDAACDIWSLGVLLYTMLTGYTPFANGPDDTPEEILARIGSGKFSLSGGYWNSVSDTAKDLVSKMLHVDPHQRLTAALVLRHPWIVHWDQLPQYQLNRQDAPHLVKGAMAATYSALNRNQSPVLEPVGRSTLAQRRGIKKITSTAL
Method: as §1

SYK = SYK (Homo sapiens, UniProt P43405)
Method: as §1

Src = Src (Homo sapiens, UniProt P12931)
Method: as §1

TAO1 = TAO1 (Homo sapiens, UniProt Q7L7X3)
Method: as §1

TSSK1 = TSSK1 (Homo sapiens, UniProt Q9BXA7)
Method: as §1

TTBK1 = TTBK1 (Homo sapiens, UniProt Q5TCY1)
Chain of TTBK1 (Q5TCY1 whole entry): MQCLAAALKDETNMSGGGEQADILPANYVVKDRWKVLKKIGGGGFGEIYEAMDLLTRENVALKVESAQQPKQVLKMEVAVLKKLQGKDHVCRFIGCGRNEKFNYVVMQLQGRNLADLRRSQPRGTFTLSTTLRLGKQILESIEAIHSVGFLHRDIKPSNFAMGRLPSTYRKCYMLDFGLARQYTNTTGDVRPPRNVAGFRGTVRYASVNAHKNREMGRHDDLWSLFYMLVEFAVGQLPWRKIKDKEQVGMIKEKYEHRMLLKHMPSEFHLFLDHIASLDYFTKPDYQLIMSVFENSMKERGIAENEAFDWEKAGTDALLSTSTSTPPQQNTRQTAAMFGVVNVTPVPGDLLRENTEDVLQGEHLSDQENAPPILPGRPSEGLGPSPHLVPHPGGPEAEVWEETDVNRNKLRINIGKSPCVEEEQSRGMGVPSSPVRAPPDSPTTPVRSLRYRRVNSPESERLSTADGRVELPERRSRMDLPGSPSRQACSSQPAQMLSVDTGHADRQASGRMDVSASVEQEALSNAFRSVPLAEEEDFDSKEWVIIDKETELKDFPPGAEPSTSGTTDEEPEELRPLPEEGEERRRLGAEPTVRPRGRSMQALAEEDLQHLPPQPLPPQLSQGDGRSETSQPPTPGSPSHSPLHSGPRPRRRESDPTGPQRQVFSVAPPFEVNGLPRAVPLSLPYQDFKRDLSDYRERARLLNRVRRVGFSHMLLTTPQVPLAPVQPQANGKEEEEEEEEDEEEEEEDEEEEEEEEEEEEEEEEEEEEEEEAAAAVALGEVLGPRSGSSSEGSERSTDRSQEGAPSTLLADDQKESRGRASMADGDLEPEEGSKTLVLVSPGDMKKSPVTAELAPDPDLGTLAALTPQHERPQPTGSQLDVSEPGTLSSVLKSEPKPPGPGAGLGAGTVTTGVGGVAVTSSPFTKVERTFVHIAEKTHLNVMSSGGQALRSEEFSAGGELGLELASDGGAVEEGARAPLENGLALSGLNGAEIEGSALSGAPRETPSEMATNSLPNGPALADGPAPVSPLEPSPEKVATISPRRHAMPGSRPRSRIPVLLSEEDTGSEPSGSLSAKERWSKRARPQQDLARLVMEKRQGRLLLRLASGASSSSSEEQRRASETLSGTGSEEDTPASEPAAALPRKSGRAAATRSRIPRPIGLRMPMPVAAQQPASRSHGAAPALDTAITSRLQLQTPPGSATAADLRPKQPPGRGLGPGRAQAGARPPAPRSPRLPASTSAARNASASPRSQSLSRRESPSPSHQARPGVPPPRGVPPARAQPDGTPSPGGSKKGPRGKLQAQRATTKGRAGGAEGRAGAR
Method: as §1

TrkA = TrkA (Homo sapiens, UniProt P04629)
Method: as §1

VEG-FR = settings: 0.1 μM
Method: as §1

WNK1 = WNK1 (Homo sapiens, UniProt Q9H4A3)
Chain of WNK1 (Q9H4A3 whole entry): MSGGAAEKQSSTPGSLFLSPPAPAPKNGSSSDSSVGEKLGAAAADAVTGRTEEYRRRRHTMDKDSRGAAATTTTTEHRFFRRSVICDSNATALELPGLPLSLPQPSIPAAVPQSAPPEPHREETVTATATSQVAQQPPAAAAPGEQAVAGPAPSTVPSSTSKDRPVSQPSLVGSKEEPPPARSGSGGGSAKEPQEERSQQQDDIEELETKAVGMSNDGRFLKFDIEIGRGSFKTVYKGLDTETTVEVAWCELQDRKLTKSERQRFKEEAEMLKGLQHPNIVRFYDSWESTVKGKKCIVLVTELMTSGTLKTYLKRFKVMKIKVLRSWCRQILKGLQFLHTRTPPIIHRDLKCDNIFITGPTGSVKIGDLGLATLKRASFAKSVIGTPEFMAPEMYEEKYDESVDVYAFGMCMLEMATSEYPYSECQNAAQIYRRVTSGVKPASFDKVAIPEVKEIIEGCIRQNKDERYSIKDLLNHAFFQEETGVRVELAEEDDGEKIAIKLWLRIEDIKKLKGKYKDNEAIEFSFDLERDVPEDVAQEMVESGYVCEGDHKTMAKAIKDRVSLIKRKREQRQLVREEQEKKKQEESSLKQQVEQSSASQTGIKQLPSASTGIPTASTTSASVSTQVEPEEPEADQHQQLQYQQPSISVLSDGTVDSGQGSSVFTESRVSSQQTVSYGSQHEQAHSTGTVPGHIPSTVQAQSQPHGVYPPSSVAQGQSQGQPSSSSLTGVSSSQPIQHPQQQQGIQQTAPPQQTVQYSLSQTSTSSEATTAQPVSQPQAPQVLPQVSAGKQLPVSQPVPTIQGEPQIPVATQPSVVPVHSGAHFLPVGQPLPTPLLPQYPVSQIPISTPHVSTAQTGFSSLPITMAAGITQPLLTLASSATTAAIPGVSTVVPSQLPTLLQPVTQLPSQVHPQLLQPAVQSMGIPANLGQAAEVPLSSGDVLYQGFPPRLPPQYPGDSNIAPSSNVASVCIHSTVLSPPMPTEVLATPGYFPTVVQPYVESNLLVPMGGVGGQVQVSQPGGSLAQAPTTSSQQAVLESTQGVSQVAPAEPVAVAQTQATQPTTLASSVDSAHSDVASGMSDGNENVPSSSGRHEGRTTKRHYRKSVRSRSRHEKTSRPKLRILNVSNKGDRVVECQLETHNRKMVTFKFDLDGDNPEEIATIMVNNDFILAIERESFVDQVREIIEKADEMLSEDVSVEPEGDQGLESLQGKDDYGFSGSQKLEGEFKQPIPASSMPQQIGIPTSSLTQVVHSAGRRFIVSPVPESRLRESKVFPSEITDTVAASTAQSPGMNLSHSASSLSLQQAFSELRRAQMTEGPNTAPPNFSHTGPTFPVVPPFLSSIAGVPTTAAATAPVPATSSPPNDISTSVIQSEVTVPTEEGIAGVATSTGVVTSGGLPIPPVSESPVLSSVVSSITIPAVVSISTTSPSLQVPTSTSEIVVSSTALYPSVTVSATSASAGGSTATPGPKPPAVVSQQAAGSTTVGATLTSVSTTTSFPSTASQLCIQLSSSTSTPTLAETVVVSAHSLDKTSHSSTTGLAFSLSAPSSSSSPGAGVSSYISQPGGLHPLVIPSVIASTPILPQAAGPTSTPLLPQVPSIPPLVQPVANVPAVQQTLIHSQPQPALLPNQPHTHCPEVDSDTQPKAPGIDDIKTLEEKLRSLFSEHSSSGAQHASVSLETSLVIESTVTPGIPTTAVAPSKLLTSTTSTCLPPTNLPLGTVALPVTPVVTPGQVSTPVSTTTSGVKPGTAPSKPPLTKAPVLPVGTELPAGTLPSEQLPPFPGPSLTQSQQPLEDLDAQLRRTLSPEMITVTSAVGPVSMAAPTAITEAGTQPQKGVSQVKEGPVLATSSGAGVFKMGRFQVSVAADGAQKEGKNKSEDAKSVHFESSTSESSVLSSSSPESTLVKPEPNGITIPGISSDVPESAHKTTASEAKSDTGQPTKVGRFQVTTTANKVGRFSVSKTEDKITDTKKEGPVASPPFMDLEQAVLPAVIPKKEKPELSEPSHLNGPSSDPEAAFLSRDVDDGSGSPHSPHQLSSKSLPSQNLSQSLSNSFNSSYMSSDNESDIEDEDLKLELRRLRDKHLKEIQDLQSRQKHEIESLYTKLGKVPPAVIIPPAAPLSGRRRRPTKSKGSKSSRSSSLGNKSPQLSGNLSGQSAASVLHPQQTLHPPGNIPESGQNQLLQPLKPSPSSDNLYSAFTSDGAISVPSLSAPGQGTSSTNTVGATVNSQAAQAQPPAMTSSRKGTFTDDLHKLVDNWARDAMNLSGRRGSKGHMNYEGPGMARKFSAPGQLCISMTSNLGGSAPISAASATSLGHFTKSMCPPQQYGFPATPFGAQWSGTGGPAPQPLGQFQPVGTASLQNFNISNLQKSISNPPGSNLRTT
Method: as §1

ZAP70 = ZAP70 (Homo sapiens, UniProt P43403)
Method: as §1

p38d MAPK = p38d MAPK (Homo sapiens, UniProt O15264)
Method: as §1

[1] = 1 μM, cross-referenced with screen data of ref 37, read-out: activity remaining after treatment

SMILES: CCc1ccccc1C(=O)Nc1n[nH]c2c(C)c(F)c(C3C(C#N)=C(C)N(C)C(C)=C3C#N)cc12 [BAY-3827, N-[5-(3,5-dicyano-1,2,6-trimethyl-4H-pyridin-4-yl)-6-fluoro-7-methyl-1H-indazol-3-yl]-2-ethylbenzamide]
- remaining activity at 0.1 µM (CAMK1): 80%
- remaining activity at 0.1 µM (CDK2-Cyclin A): 99%
- remaining activity at 1 µM (CDK2-Cyclin A; 1 μM, CDK2, cross-referenced with screen data of ref 37, read-out: activity remaining after treatment): ≥ 99%
- remaining activity at 0.1 µM (CK2): 85%
- remaining activity at 0.1 µM (CLK2): 87%
- remaining activity at 0.1 µM (EPH-A2): 114%
- remaining activity at 0.1 µM (EPH-B3): 84%
- remaining activity at 0.1 µM (ERK1): 105%
- remaining activity at 0.1 µM (IGF-1R): 67%
- inhibition at 0.1 µM (IRAK1): ~60%
- remaining activity at 0.1 µM (IRAK1): ≤ 50%
- remaining activity at 0.1 µM (LKB1): 97%
- remaining activity at 0.1 µM (MKK2): 97%
- remaining activity at 0.1 µM (MLK1): 89%
- remaining activity at 0.1 µM (MNK1): 126%
- remaining activity at 0.1 µM (MST4): 64%
- remaining activity at 0.1 µM (PAK4): 80%
- remaining activity at 0.1 µM (PDGFRA): 82%
- remaining activity at 0.1 µM (PKA): 94%
- remaining activity at 0.1 µM (PLK1): 97%
- remaining activity at 0.1 µM (PRAK): 101%
- remaining activity at 0.1 µM (PRK2): 88%
- remaining activity at 0.1 µM (RSK2): 90%
- remaining activity at 1 µM (RSK2; [1]): ≤ 50%
- remaining activity at 0.1 µM (SYK): 91%
- remaining activity at 0.1 µM (Src): 90%
- remaining activity at 0.1 µM (TAO1): 94%
- remaining activity at 0.1 µM (TSSK1): 88%
- remaining activity at 0.1 µM (TTBK1): 101%
- remaining activity at 1 µM (TTBK1; [1]): ≥ 99%
- remaining activity at 0.1 µM (TrkA): 87%
- Kinase activity remaining (%) (VEG-FR): 89%
- remaining activity at 0.1 µM (WNK1): 101%
- remaining activity at 1 µM (WNK1; [1]): ≥ 99%
- remaining activity at 0.1 µM (ZAP70): 96%
- remaining activity at 0.1 µM (p38d MAPK): 99%

SMILES: CC1=C(C#N)C(c2ccc3c(c2)c(NC(=O)c2ccccc2C)nn3C)C(C#N)=C(C)N1 [BAY-974, N-[5-(3,5-dicyano-2,6-dimethyl-1,4-dihydropyridin-4-yl)-1-methylindazol-3-yl]-2-methylbenzamide]
- remaining activity at 0.1 µM (CAMK1): 78%
- remaining activity at 0.1 µM (CDK2-Cyclin A): 96%
- remaining activity at 0.1 µM (CK2): 79%
- remaining activity at 0.1 µM (CLK2): 93%
- remaining activity at 0.1 µM (EPH-A2): 109%
- remaining activity at 0.1 µM (EPH-B3): 119%
- remaining activity at 0.1 µM (ERK1): 103%
- remaining activity at 0.1 µM (IGF-1R): 147%
- inhibition at 0.1 µM (IRAK1): 55 to 90%
- remaining activity at 0.1 µM (LKB1): 104%
- remaining activity at 0.1 µM (MKK2): 95%
- remaining activity at 0.1 µM (MLK1): 90%
- remaining activity at 0.1 µM (MNK1): 100%
- remaining activity at 0.1 µM (MST4): 98%
- remaining activity at 0.1 µM (PAK4): 96%
- remaining activity at 0.1 µM (PDGFRA): 86%
- remaining activity at 0.1 µM (PKA): 103%
- remaining activity at 0.1 µM (PLK1): 105%
- remaining activity at 0.1 µM (PRAK): 107%
- remaining activity at 0.1 µM (PRK2): 83%
- remaining activity at 0.1 µM (RSK2): 117%
- inhibition at 0.1 µM (SYK): 55 to 90%
- remaining activity at 0.1 µM (Src): 92%
- remaining activity at 0.1 µM (TAO1): 88%
- remaining activity at 0.1 µM (TSSK1): 55%
- remaining activity at 0.1 µM (TTBK1): 104%
- remaining activity at 0.1 µM (TrkA): 97%
- Kinase activity remaining (%) (VEG-FR): 95%
- remaining activity at 0.1 µM (WNK1): 117%
- remaining activity at 0.1 µM (ZAP70): 94%
- remaining activity at 0.1 µM (p38d MAPK): 108%
